pIC50: −log10 of the molar value.
Target: Proto-oncogene tyrosine-protein kinase Src (Homo sapiens, UniProt P12931)
Assay: Inhibition of fluorescent (GpYEEI) binding to Src protein tyrosine kinase SH2 domain

Proto-oncogene tyrosine-protein kinase Src, sequence (P12931 2-536 limits assumed): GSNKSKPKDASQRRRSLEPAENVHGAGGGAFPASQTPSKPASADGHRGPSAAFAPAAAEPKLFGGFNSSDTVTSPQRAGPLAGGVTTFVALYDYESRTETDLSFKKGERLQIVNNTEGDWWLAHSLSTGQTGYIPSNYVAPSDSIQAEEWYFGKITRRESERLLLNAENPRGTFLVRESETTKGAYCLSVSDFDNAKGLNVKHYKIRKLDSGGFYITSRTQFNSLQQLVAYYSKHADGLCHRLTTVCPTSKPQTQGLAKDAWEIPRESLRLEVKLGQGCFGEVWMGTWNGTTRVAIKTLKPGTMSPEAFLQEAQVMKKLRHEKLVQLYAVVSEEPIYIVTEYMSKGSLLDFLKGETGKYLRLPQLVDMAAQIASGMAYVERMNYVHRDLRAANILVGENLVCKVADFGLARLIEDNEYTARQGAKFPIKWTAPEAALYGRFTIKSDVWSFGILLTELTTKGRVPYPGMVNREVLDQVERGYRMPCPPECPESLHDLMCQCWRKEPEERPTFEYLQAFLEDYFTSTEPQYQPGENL

SMILES	pIC50
COc1cccc(CNC(=O)[C@@H](NC(=O)COc2cc3[n+]4c(c2)C(=O)[O][Cu]4([OH])[O]C3=O)c2ccccc2)c1 [Copper complex]	4.70
COc1cccc(CNC(=O)[C@H](Cc2ccccc2)NC(=O)COc2cc3[n+]4c(c2)C(=O)[O][Cu]4([OH])[O]C3=O)c1 [Copper complex]	4.77

From BindingDB's records for doi:10.1016/j.bmcl.2004.06.018 (Darmstadt Technical University, 2004)
